Reference: patent US20030152986A1, “Method for sorting antifungal molecules acting on the glucanosyltransferase activity” (Institut Pasteur, priority 1996, published 2003)
Residue numbers refer to the chain shown, from its start.

B1: 49 kDa enzyme: β-(1-3)-glucanosyltransferase purified from cell wall autolysate of A. fumigatus, SEQ ID NO 2/3 (protein, listed as Aspergillus fumigatus)
chain 1: MKASAVTAALAVGASTVLAAPSIKARDDVTPITVKGNAFFKGDERFYIRGVDYQPGGSSDLADPIADADGCKRDIAKFKELGLNTIRVYSVDNSKNHDECMNTLADAGIYLVLDVNTPKYSINRAKPKESYNDVYLQYIFATVDAFAGYKNTLAFFSGNEVINDGPSSSAAPYVKAVTRDLRQYIRSRKYREIPVGYSAADIDTNRLQMAQYMNCGSDDERSDFFAFNDYSWCDPSSFKTSGWDQKVKNFTGYGLPLFLSEYGCNTNKRQFQEVSSLYSTDMTGVYSGGLVYEYSQEASNYGLVEISGNNVKELPDFDALKTAFEKTSNPSGDGNYNKTGGANPCPAKDAPNWDVDNDALPAIPEPAKKYMTEGAGKGPGFAGPGSQDRGTQSTATAEPGSGSATGSSSSGTSTSSKGAAAGLTVPSLTMAPVVVGAVTLLSTVFGAGLVLL
chain 2: DDVTPITVKGNAFFKGDERFYIRGVDYQPGGSSDLADPIADADGCKRDIAKFKELGLNTIRVYSVDNSKNHDECMNTLADAGIYLVLDVNTPKYSINRAKPKESYNDVYLQYIFATVDAFAGYKNTLAFFSGNEVINDGPSSSAAPYVKAVTRDLRQYIRSRKYREIPVGYSAADIDTNRLQMAQYMNCGSDDERSDFFAFNDYSWCDPSSFKTSGWDQKVKNFTGYGLPLFLSEYGCNTNKRQFQEVSSLYSTDMTGVYSGGLVYEYSQEASNYGLVEISGNNVKELPDFDALKTAFEKTSNPSGDGNYNKTGGANPCPAKDAPNWDVDNDALPAIPEPAKKYMTEGAGKGPGFAGPGSQDRGTQSTATAEPGSGSATGSSSSGTSTSSKGAAAGLTVPSLTMAPVVVGAVTLLSTVFGAGLVLL

Key:
[1] = target: T1, 49 kDa β-(1-3)-glucanosyltransferase (BGT2) (Aspergillus fumigatus, UniProt B0XT72); experiment: Transferase assay with reduced (^3H-marked) laminarioligosaccharides, products separated by HPAEC; assay type: biochemical; settings: for activity of the transferase towards the substance as substrate/donor: incubation with 49 kDa transferase, HPAEC analysis of products
T1 construct: from tissue; host or cells: Aspergillus fumigatus CBS 144-89 mycelium, cell wall autolysate; four ion-exchange steps and one gel filtration
Procedure: The enzyme fractions were assayed for transferase activity by incubation in 50 mM Na citrate, pH 5.0 at 37° C. (10 μl volume per assay) with a laminarioligosaccharide reduced with borohydride (8 mM final) of at least size G10. Samples (3 μl) were taken at different times, 50 mM NaOH cooled in ice (47 μl) was added to terminate the reaction, and the mixture was frozen until analyzed by high-performance anion-exchange chromatography (HPAEC). Since the peak intensities detected by Pulsed Electrochemical Detector (PED) varied from day to day, the transferase activity was quantified by use of reduced laminarioligosaccharides marked with ^3H as substrates and measurement of the appearance of the marking in the products after separation by HPAEC chromatography, using the on-line Radiomatic 150TR scintillation rate analysis apparatus (Packard).
Except where otherwise mentioned, the assays for the enzyme characterization studies were performed as above with 0.25 μg of purified transferase.
The samples from the transferase tests were analyzed on a Dionex CarboPac PA1 analytical column (4×250 mm) (with a PA1 reference column) on a Dionex HPAEC-type system with pulsed electrochemical detection (PED-2 cell), fitted with a combination of pH-Ag/AgCl reference electrodes and using a potential of 0.4 V for the first 0.5 s of detection. The oligosaccharides were eluted under the following conditions: flow rate 1 ml/min, buffer A: 50 mM NaOH; buffer B: 500 mM sodium acetate in 50 mM NaOH; gradient 0 to 2 min, 98% A 2% B (isocratic), 2 to 15 min 75% A 25% B (linear), 15 to 45 min 60% A 40% B (linear).
In order to determine the relative reaction rate of the enzymes with laminarioligosaccharides of variable sizes, the 49 kDa enzyme (0.25 μg) was incubated with 8 mM of rG10 to rG15 marked with ^3H and the rate of formation of the marked products was measured. The rate with rG10 (328 nmol.min^−1) was approximately equal to 50% of that with the larger substrates and there was no significant difference between the reaction rates for rG11 to rG15 (648±46 nmol.min^−1.mg protein^−1).
The relative rate of the reaction with the acceptors was determined by using 2 mM of rG11 as donor and 32 mM of reduced acceptor marked with ^3H and measuring the formation of marked transferase product (FIG. 4). Under these conditions, the reaction with rG11 used as acceptor was negligible. The reaction rate increased with an increase in chain length, showing that the 49 kDa enzyme prefers the larger laminarioligosaccharide acceptors.
By using rG11 as substrate, it was impossible to calculate an apparent Km corresponding to the two steps of the reaction. In order to determine a Km for the donor site, we used an acceptor which was not a donor. We used [^3H]-rG7 (1×10^6 cpm) as acceptor at a high concentration (64 mM) with different concentrations of rG11 kept below 8 mM. Under these conditions, the reaction took place with rG11 as donor and rG7 was used rather than rG11 as acceptor, as determined by the absence of formation of the transferase product rG16. The initial reaction rate was determined by measuring the appearance of marked rG12.

[2] = target: T2, 49 kDa enzyme (Aspergillus fumigatus, UniProt B0XT72); experiment: Optimum pH and storage stability of the 49 kDa enzyme; assay type: biochemical
T2 construct: from tissue; host or cells: Aspergillus fumigatus CBS 144-89 mycelium, cell wall autolysate; four ion-exchange steps and one gel filtration
T2 sequence (B0XT72 whole entry, looked up): B1 chain 1 with T103A
Procedure: FIG. 6 illustrates the effect of pH on the transfer rate. The 49 kDa transferase was incubated with 8 μM of [^3H]-rG11 (1×10^6 cpm). The reaction rates were determined by measuring the quantity of marking formed in the form of the product rG16. The buffers used were: ●, sodium citrate/citric acid; ∘, imidazole/citric acid; x, sodium acetate/acetic acid; [formula], Tris/glycine; ▴, phosphate/NaOH; □, Tris/acetic acid; Δ, glycine/HCl.
The 49 kDa enzyme was tested at different pH values, the storage stability was verified and the activity of the N-glycosylated enzyme was tested. The enzyme was active over a wide range of acid pH, showing an activity of more than 50% of its maximum between pH 2.5 and 6.0.

T1 sequence (B0XT72 28-419): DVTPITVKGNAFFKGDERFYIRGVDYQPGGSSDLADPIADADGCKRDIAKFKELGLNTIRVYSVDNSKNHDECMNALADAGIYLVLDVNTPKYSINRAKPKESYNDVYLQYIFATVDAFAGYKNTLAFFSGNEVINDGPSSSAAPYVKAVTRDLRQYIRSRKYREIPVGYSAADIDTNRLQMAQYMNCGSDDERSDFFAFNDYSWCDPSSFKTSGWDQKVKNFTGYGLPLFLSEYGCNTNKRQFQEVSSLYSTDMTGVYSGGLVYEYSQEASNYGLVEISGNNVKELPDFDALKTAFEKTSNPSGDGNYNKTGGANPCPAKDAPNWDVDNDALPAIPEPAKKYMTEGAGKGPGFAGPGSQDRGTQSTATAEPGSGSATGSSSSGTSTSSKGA

Molecule	activity of the transferase towards the substance as substrate/donor [1]	other results
chitohexaose	no activity	–
reduced laminarihexose [[^3H]-rG6]	–	Transfer rate ([1]; 2 mM rG11 as donor, 32 mM ^3H-marked reduced acceptor, initial rate of formation of transfer product): 387 nmol.min^−1.mg protein^−1
OC[C@H]1O[C@@H](O[C@H]2[C@H](O)[C@@H](O)[C@H](O[C@H]3[C@H](O)[C@@H](O)[C@H](O[C@H]4[C@H](O)[C@@H](O)[C@H](O[C@H]5[C@H](O)[C@@H](O)C(O)O[C@@H]5CO)O[C@@H]4CO)O[C@@H]3CO)O[C@@H]2CO)[C@H](O)[C@@H](O)[C@@H]1O (stereo partly shown) [ceflopentaose]	no activity	–
maltoheptaose	no activity	–
gentiooligosaccharides	no activity	–
B1	–	storage stability ([2]; 4° C. in 10 mM citrate buffer pH 5.0 for several weeks, speed-vac dried and re-suspended, or −20° C.): without significant loss of activity; pH optimum ([2]; citrate buffer): about 5.0
